Assay results from PubChem BioAssay (NCI).
“And” between values parts separate entries of the source, which are not always exact repeats. Identical values can stand only once.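 Exposure lasted 48 hours, with cells grown in 96-well plates and compounds tested at five concentrations. The concentration for 50% growth inhibition is given as GI50. TGI: concentration producing complete growth inhibition.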

Legend:
Assay in all cases: NCI tumour cell line growth inhibition, 48 h
IGROV1 ovarian = test system: IGROV1 ovarian
SK-MEL-5 melanoma = test system: SK-MEL-5 melanoma
A549 NSCLC = test system: A549 NSCLC
SF-539 CNS = test system: SF-539 CNS
OVCAR-4 ovarian = test system: OVCAR-4 ovarian
SK-MEL-2 melanoma = test system: SK-MEL-2 melanoma
SNB-75 CNS = test system: SNB-75 CNS
COLO 205 colon = test system: COLO 205 colon
HCT-15 colon = test system: HCT-15 colon
UACC-62 melanoma = test system: UACC-62 melanoma

Structure (SMILES)	GI50 (IGROV1 ovarian) [µM]	TGI (IGROV1 ovarian)	GI50 (SK-MEL-5 melanoma)	TGI (SK-MEL-5 melanoma) [µM]	GI50 (A549 NSCLC) [µM]	TGI (A549 NSCLC)	GI50 (SF-539 CNS) [µM]	TGI (SF-539 CNS)	GI50 (OVCAR-4 ovarian) [µM]	TGI (OVCAR-4 ovarian)	GI50 (SK-MEL-2 melanoma) [µM]	TGI (SK-MEL-2 melanoma)	GI50 (SNB-75 CNS) [µM]	TGI (SNB-75 CNS)	GI50 (COLO 205 colon)	TGI (COLO 205 colon)	GI50 (HCT-15 colon) [µM]	TGI (HCT-15 colon)	GI50 (UACC-62 melanoma)	TGI (UACC-62 melanoma)
CN1CCN(c2nc(NCCNc3ccnc4cc(Cl)ccc34)c3ccccc3n2)CC1	2.51	7.94 µM	1.72 µM	3.12	1.44	5.97 µM	1.77	3.34 µM	2.15	6.26 µM	1.98	4.19 µM	1.84	4.96 µM	0.974 µM	2.33 µM	3.02	10.8 µM	1.82 µM	3.39 µM
N=C(N)c1ccc(-c2ccc(-c3ccco3)o2)cc1	4.38	16.7 µM	2.67 µM	9.76	4.76	18.9 µM	8.96	21.5 µM	6.42	24.1 µM	2.41	4.65 µM	10.7	23.2 µM	1.78 µM	3.48 µM	2.58	7.22 µM	1.82 µM	3.9 µM
O=c1cc(N2CCOCC2)oc2c(-c3ccccc3)cccc12	3.65	> 34.4 µM and 12.3 µM	9.35 µM	22	6	> 72.8 µM and 36.7 µM	5.57	31.6 µM and 29.8 µM	3.5	> 61.9 µM and 75.5 µM	12.1	38 µM and 36.9 µM	1.91	14.6 µM and 5.97 µM		36.7 µM and 30.1 µM	4.98	> 100 µM and 48.7 µM	3.19 µM	18.8 µM and 21.9 µM
O=C(CCCCCCCCC(=O)OCCCn1cc(C(=O)NC(=O)OCc2ccccc2)c(=O)[nH]c1=O)OCCCn1cc(C(=O)NC(=O)OCc2ccccc2)c(=O)[nH]c1=O		> 100 µM		> 100		> 100 µM		> 100 µM		> 100 µM		> 100 µM		> 100 µM		> 100 µM		> 100 µM		> 100 µM
S=c1sc2ccccc2n1CN1CCN(Cc2ccccc2)CC1		> 100 µM		> 100		> 100 µM		> 100 µM		> 100 µM		> 100 µM		> 100 µM		> 100 µM		> 100 µM		> 100 µM
Nc1ncnc2c1ncn2C1OC(CO)C(O)C1O (configuration not stated)	> 450	> 450 µM	> 100 µM and > 450 µM and 46.2 µM	> 450	22.3	> 388 µM	31.6	> 450 µM		> 450 µM		> 100 µM and > 450 µM and 75.7 µM	11.6	> 100 µM and 331 µM and 38.2 µM	> 100 µM and > 450 µM and 60.3 µM	> 450 µM		> 100 µM and > 450 µM and 62 µM	> 100 µM and 247 µM and 27.2 µM	> 450 µM
Nc1ccc(Cl)cc1.Nc1ccc(Cl)cc1.Nc1ccc(Cl)cc1.O=C([O-])C(=O)[O-].O=C([O-])C(=O)[O-].[H+].[Ru+5]	> 100	> 100 µM		> 100	0.351	> 100 µM	0.352	> 100 µM	> 100	> 100 µM	0.219		> 78.6	> 100 µM	0.0362 µM	0.169 µM		> 100 µM	< 0.0174 µM	
O=C(O)CSc1ccn(Cc2ccccc2)c1		> 100 µM		> 100		> 100 µM		> 100 µM		> 100 µM		> 100 µM		> 100 µM		> 100 µM		> 100 µM		> 100 µM
O=C(O)C(=O)/C=C\c1ccc(Cl)cc1		> 100 µM		> 100		> 100 µM		> 100 µM		> 100 µM		> 100 µM		> 100 µM		> 100 µM		> 100 µM		> 100 µM
COc1ccc(CNCCN2C(=O)c3ccc4c5c(ccc(c35)C2=O)C(=O)N(CCNCc2ccc(OC)cc2)C4=O)cc1	0.204	0.67 µM	0.15 µM	0.285	0.329	1.28 µM	0.274	0.872 µM	0.122	0.255 µM	0.313	1.14 µM	1.15	2.48 µM	0.137 µM	0.281 µM	0.179	0.432 µM	0.392 µM	1.5 µM
CCCCCCCC(=O)SCC/C=C/[C@@H]1CC(=O)NCc2cccc(n2)CN(Cc2ccc(Cl)cc2)CC(=O)N[C@@H](C(C)C)C(=O)O1	7.02	> 100 µM	5.26 µM	17.6	12.1	97.7 µM	16.3	> 100 µM	21.7	> 100 µM	13.3	> 100 µM	5.74	> 100 µM	17.6 µM	42.9 µM	20.1	> 100 µM	5.85 µM	26.5 µM
O=C1CCc2cc([N+](=O)[O-])ccc2O1		> 100 µM		> 100		> 100 µM		> 100 µM		> 100 µM		> 100 µM		> 100 µM		> 100 µM		> 100 µM		> 100 µM
